From patent US4812461A, “Imide derivatives and their use in the treatment psychosis” (Sumitomo Pharmaceuticals Company, Limited, priority 1986, dated 1989)
Read-outs that look alike come from different tables or passages of the source.

Tests used:
[1] = test system: climbing behavior induced by apomorphine; experiment: Anti-climbing behavior test (suppression of climbing behavior induced by apomorphine in mice); format: in vivo, dd strain male mice; conditions: for ED50: Mus musculus
Text: This activity was examined through the anti-climbing behavior test, i.e. the test for suppressing the climbing behavior induced by apomorphine in mice. A designated amount of the test compound was orally administered to several groups of dd strain male mice (bodyweight, 20 to 25 g; one group, 5 mice), and each of the animals was charged in an individual column cage of 12 cm in diameter and 14 cm in height having metal poles (each pole, 2 mm in diameter) vertically installed and arranged along the periphery with intervals of 1 cm. […]
0 All the paws were on the floor
1 Only forepaws seized the pole of the cage
2 All the paws seized the pole of the cage;
climbing behavior observed discontinu-
3 Continuous climbing behavior observed

[2] = Extrapyramidal activity: catalepsy inducing activity test; format: in vivo, dd strain male mice; conditions: mouse, in vivo; oral; catalepsy checked 1 and 4 hours after administration; strained state over 30 seconds; mice
Procedure: (§1) A designated amount of the test compound was orally administered to dd strain male mice (bodyweight, 22 to 27 g), and 1 and 4 hours after the administration, catalepsy induction was checked according to the Wirth et al method. Thus, each of the animals was forced to hang its forepaws onto a metal pole of 2.5 mm in diameter horizontally situated at a height of 5 cm to keep in a strained state. The test was made with three repetitions, and the presence of at least one case in which the animal was kept in the strained state over a period of 30 seconds was deemed to have caused catalepsy.

[3] = cited from earlier work; for side effects on clinical use, in words: conventional neuroleptics
[4] = test system: catalepsy induction; experiment: Extrapyramidal activity: catalepsy inducing activity test; format: in vivo, dd strain male mice; conditions: oral
Procedure: as §1

[5] = sc, subcutaneous, apomorphine 1.0 mg/kg s.c., mice, read-out: ED50, Subcutaneous administration (anti-climbing, neuroleptic activity)
[6] = oral, after 1 hour, apomorphine 1.0 mg/kg s.c., mice, read-out: ED50, Oral administration After 1 hour (anti-climbing, neuroleptic activity)
[7] = oral, after 4 hours, apomorphine 1.0 mg/kg s.c., mice, read-out: ED50, Oral administration After 4 hours (anti-climbing, neuroleptic activity)

For `O=C(c1ccc(F)cc1)C1CCN(CCCCN2C(=O)[C@@H]3[C@H](C2=O)[C@H]2C=C[C@@H]3C2)CC1` [Compound No. 5, N-[4-{4-(4-Fluorobenzoyl)piperidinyl}butyl]bicyclo[2.2.1]hept-5-ene-2,3-di-exo-carboximide], the ED50 [1, 5] was < 1 mg/kg, the ED50 [1, 6] was 1.3 mg/kg and the ED50 [1, 7] was 2.2 mg/kg. It also gave an ED50 [2] of 25 mg/kg.
`O=C1[C@@H]2[C@H]3CC[C@H](C3)[C@@H]2C(=O)N1CCCCN1CCC(c2nsc3ccccc23)CC1` [Compound No. 2, N-[4-{4-(1,2-Benzisothiazol-3-yl)-1-piperidinyl}butyl]bicyclo[2.2.1]heptane-2,3-di-exo-carboximide] showed an ED50 [1, 6] of 3.5 mg/kg, an ED50 [1, 7] of 3.4 mg/kg and an ED50 [2] of 10 to 30 mg/kg.
In the case of `CN(C)CCCN1c2ccccc2Sc2ccc(Cl)cc21` [chlorpromazine, 2-chloro-10-(3-dimethylaminopropyl)phenothiazine], the “side effects on clinical use, in words” value [3] is listed as “serious side effects such as catalepsy and hypotension”.
`O=C(c1ccc(F)cc1)C1CCN(CCCCN2C(=O)[C@@H]3[C@H]4CC[C@H](C4)[C@@H]3C2=O)CC1` [Compound No. 1, N-[4-{4-(4-Fluorobenzoyl)piperidinyl}butyl]bicyclo[2.2.1]heptane-2,3-di-exo-carboximide] showed an ED50 [1, 5] of 0.12 mg/kg, an ED50 [1, 6] of 3.7 mg/kg and an ED50 [1, 7] of 21.8 mg/kg. The ED50 [2] was 25 to 50 mg/kg.
`O=C(CCCN1CCC(O)(c2ccc(Cl)cc2)CC1)c1ccc(F)cc1` [Haloperidol, 4-[4-(4-chlorophenyl)-4-hydroxy-1-piperidinyl]-1-(4-fluorophenyl)-1-butanone] showed an ED50 ([1]; po, 1 h, read-out: ED50, Oral administration After 1 hour (anti-climbing, neuroleptic activity)) of 0.67 mg/kg, an ED50 ([1]; po, 4 h, read-out: ED50, Oral administration After 4 hours (anti-climbing, neuroleptic activity)) of 0.44 mg/kg and an ED50 ([1]; sc, read-out: ED50, Subcutaneous administration (anti-climbing, neuroleptic activity)) of 0.21 mg/kg. For the same compound, the “neuroleptic activity (anti-climbing activity), in words” value ([1]; route not stated) was “significant neuroleptic activity”, the ED50 [2] was 3 mg/kg and the “extrapyramidal activity (catalepsy inducing activity), in words” value [4] was “considerably high level of extra-pyramidal activity”. The “side effects on clinical use, in words” value [3] was “serious side effects such as catalepsy and hypotension”.
`O=C1CC2(CCCC2)CC(=O)N1CCCCN1CCN(c2nsc3ccccc23)CC1` [Tiaspiron, 8-[4-(3-benzisothiazolyl)-1-piperazinylbutyl]-8-azaspiro[4,5]decane-7,9-dione] gave an ED50 [1, 5] of 0.23 mg/kg, an ED50 [1, 6] of 9.4 mg/kg and an ED50 [1, 7] of 61.5 mg/kg. The “extrapyramidal side effects such as catalepsy inducing activity, in words” value ([3]; in comparison with butyrophenone compounds such as haloperidol) was “alleviated in extrapyramidal side effects such as catalepsy inducing activity”.
